# From patent US12213975B2, “PDE9 inhibitors for treating sickle cell disease” (Cardurion Pharmaceuticals, Inc., priority 2018, dated 2025)
# Assays:
# [1] = tested on: Townes mouse model; assay: Plasma sE-Selectin in Townes mouse model of SCD; type: in vivo; conditions: Townes mice treated with Compound 1
# Description: Recently several drugs targeting white cell binding to endothelial cells, have been advancing in clinical studies in patients. Compound 1 is able to increase expression of fetal hemoglobin in patient derived cells and murine models of SCD and reduce vessel occlusion in SCD murine models. In this Example, the ability of Compound 1 to reduce the adhesive properties of neutrophils from SCD patients and reduce sE-Selectin (sE-Sel) and markers of PMN activation in murine SCD models was studied.
# Endothelial E-selectin (E-Sel) slows leukocyte rolling, which is followed by stationary adhesion and transmigration of activated leukocytes. Plasma levels of sE-Sel, produced by the enzymatic cleavage of the extracellular domains of E-Sel, are increased in SCD patients and this may be mediated by its interaction with leukocytes. In the Townes mouse model, plasma sE-Sel is increased 144% ([…]) over levels seen in control mice ([…]).
# [2] = tested on: patient; assay: Adverse event profile when taken with food; type: in vivo; conditions: once a day with food
# Procedure: In some embodiments, Compound 1 or a pharmaceutically acceptable salt or polymorph thereof is administered to a patient, wherein Compound 1 or a pharmaceutically acceptable salt or polymorph thereof is administered once a day with food. […] The incidence and severity of the side effects, such as nausea, emesis and headache, can be reduced when Compound 1 or a pharmaceutically acceptable salt or polymorph thereof, is taken with food.
# [3] = tested on: SCD models; assay: Circulating levels of PMNs in SCD models; type: in vivo
# [4] = tested on: SCD patient neutrophils adhering to activated endothelial cells HMEC-1; assay: In vitro adhesion assay mimicking blood flow: SS patient neutrophils on activated HMEC-1 lined microchannels; type: cell-based, human
# Description: This appears to be accompanied by a Compound 1-mediated reduction in disease specific cell activation including 67% lower levels of myeloid derived myeloperoxidase (MPO) and 26% lower levels of neutrophil derived arginase in the lung (FIG. 1). […] This was quantified by real time monitoring of the green florescent patches in the mircochannel, as neutrophils are labeled by a specific Alexa Fluor® 488-conjugated antibody before the perfusion step. […] Under these conditions, adhesion was reduced an average of 54% (p=0.03) (FIG. 2). Mechanistically, not willing to be bound by any theory, Compound 1 may target the stationary adhesion step of neutrophils as it lowered expression levels of key neutrophil integrins including CD11a [reduced 23% (p=0.002)], CD11b [reduced 39% (ns)) and CD18 [reduced 47% (p=0.03)) (FIG. 3).
compound,measurement,setting,value
"C[C@@H]1CN(Cc2ncccn2)C[C@H]1c1cn2c(C3CCOCC3)ncc2c(=O)[nH]1 [Compound 1, 6-[(3S,4S)-4-methyl-1-(pyrimidin-2-ylmethyl)pyrrolidin-3-yl]-3-tetrahydropyran-4-yl-7H-imidazo[1,5-a]pyrazin-8-one]",plasma sE-Sel,"[1]; untreated Townes 139, control mice 57",92 ng/mL
same,plasma sE-Sel levels elevated over control mice,[1]; untreated Townes increased 144%,61%
same,"effect of food on adverse event profile (nausea, emesis, headache)",[2],food can dramatically reduce the adverse event profile
same,circulating levels of PMNs,[3],reduced circulating levels of PMNs
same,incubation time at which inhibitory effect was initiated,[4],15 min
same,reduction of neutrophil adhesion (average),"[4]; 30 min incubation with 30 μM, p=0.03, FIG. 2",54%
same,effect on neutrophil adhesion to activated HMEC-1,[4]; added to blood samples prior to the perfusion step,reduced adhesions significantly and in a dose dependent manner
